Series [1] has as its system B16 melanoma cells. To be noted: 50 mg/kg in terms of paclitaxel, intravenous, six days after administration; paclitaxel 50 mg/kg. How it is done: Further, a control solution was prepared by dissolving paclitaxel per se into a mixture of ethanol, Cremophore EL (manufactured and sold by Sigma, U.S.A.) and physiological saline. Thus, four types of solutions, namely, three different types of test sample solutions and one control solution were obtained.
Twenty-eight female C57BL/6 mice (six weeks old) were divided into four groups, each consisting of seven mice, and subsequently, B16 melanoma cells were intradermally transplanted to the groin of each of the mice (5×10^6 cells per mouse). After eight days from the transplantation, the above-mentioned four types of solutions were administered to the transplanted mice at the tails thereof intravenously so that the mice belonging to the same group received the administration of the same type of solution. […] With respect to the control solution, the dose of paclitaxel was 50 mg/kg.
(§1) Separately, a group consisting of thirteen mice, which were transplanted with B16 melanoma cells in the same manner as mentioned above, was provided. Each of the mice of such group received the administration of physiological saline, to thereby obtain a non-treated group of mice.
The tumor volume was determined as follows. The external major and minor diameters (a and b, respectively) (each in mm) of the tumor were measured, and the tumor volume (V) was obtained according to the following formula. [formula]

The next series relates to colon 26 tumor cells. To be noted: 50 mg/kg in terms of paclitaxel, intravenous, repeated every 4 days; paclitaxel 50 mg/kg. How it is done: (§2) Further, a control solution was prepared by dissolving paclitaxel per se into a mixture of ethanol, Cremophore EL (manufactured and sold by Sigma, U.S.A.) and physiological saline.
(§3) With respect to the control solution, the dose of paclitaxel was 50 mg/kg.
Each of the mice of such group received the administration of only physiological saline in the same manner as in the case of the administration of the test sample solution, to thereby obtain a non-treated group of mice.
Evaluation was made of the antitumor activity in terms of the change (with the lapse of time) of the average tumor volume (%).
(§4) The tumor volume was determined as follows. […] [formula]

In series [2] the test system is B16 melanoma cells. To be noted: 50 mg/kg in terms of paclitaxel, intravenous, six days after administration; paclitaxel 50 mg/kg. As to the method: as §2, §3, §1, §4
This is another data set of the same source.

For series [3] the following is noted: serum, 37° C.; serum species and time not stated. How it is done:
Each of compounds (24), (26), (28) and (30) (drug complexes) obtained in Example 8 was dissolved in physiological saline so that the concentration thereof in terms of dexamethasone was 80 μg/ml, to thereby obtain four solutions. 50 μl of each of the above-obtained four solutions was individually added to each of 250 μl of mouse serum and 250 μl of human serum, and the amounts of dexamethasone released from the respective compounds at 37° C. were determined as follows.
The recovery and quantitative analysis of dexamethasone in serum were conducted as follows: 250 μl of phosphate buffer (pH 7.4) was added to […] of each of the sera to which the above-mentioned solution was added, to thereby obtain a mixture. To the obtained mixture was added 3 ml of a solution of hydrocortisone acetate (as an internal standard for the below-mentioned HPLC analysis, the concentration of hydrocortisone acetate: 10 ng/ml) in a mixture of acetonitrile and methanol (acetonitrile/methanol=4/1) and subjected to centrifugation (3,000 rpm, 10 minutes, 4° C.). To 700 μl of the resultant supernatant was added 700 µl of distilled water, to thereby obtain a mixture. The obtained mixture was subjected to filtration with a membrane filter (pore size 0.2 μm), and the resultant filtrate was used as a sample for the quantitative analysis of dexamethasone by HPLC under the following conditions. […]
Column: Asahipak […] C18 (4.6×150 mm)
Column temperature: room temperature
The detected wavelength: 254 nm
Mobile phase: Linear gradient
0 min.: 20% aqueous acetonitrile (20% CH3CN/H2O)
20 min.: 50% aqueous acetonitrile (50% CH3CN/H2O)

Series [4] can be described thus: Dissolution in physiological saline. To be noted: 1 mg in 10 ml of physiological saline. The class given is physicochemical.

Like-named read-outs stand apart in the source and are kept apart here.

Consider “carboxymethylated dextran-2′-Ala-paclitaxel [compound (7)]”, for which the “antitumor activity (relative average tumor volume) as compared to paclitaxel per se” value with B16 melanoma cells [1] is on record as “excellent”.
As to “carboxymethylated dextran-2′-Gly-Gly-Phe-Gly-paclitaxel [compound (33)]”, the “antitumor activity (change of average tumor volume with time) as compared to paclitaxel per se” value with colon 26 tumor cells was “significantly excellent”. Moreover, the “antitumor activity (relative average tumor volume) as compared to paclitaxel per se” value in the series with B16 melanoma cells [2] is “significantly excellent”.
Turning to “carboxymethylated dextran-2′-Gly-paclitaxel [compound (3)]”, the “antitumor activity (relative average tumor volume) as compared to paclitaxel per se” value with B16 melanoma cells [1] is “significantly excellent”.
For `CCC(=O)OCC(=O)[C@@]1(O)[C@H](C)C[C@H]2[C@@H]3CCC4=CC(=O)C=C[C@]4(C)[C@@]3(F)[C@@H](O)C[C@@]21C` [compound (30), 21-propanoyl-dexamethasone], the “dexamethasone introduced into the compound that was released” value in series [3] is no less than 98%.
For the molecule `CCC(=O)NCC(=O)OCC(=O)[C@@]1(O)[C@H](C)C[C@H]2[C@@H]3CCC4=CC(=O)C=C[C@]4(C)[C@@]3(F)[C@@H](O)C[C@@]21C` [compound (26), 21-propanoylglycyl-dexamethasone], the “dexamethasone introduced into the compound that was released” value in series [3] is reported as “approximately 95%”.
The same measure, in the same setting: then `CCC(=O)N[C@@H](C)C(=O)OCC(=O)[C@@]1(O)[C@H](C)C[C@H]2[C@@H]3CCC4=CC(=O)C=C[C@]4(C)[C@@]3(F)[C@@H](O)C[C@@]21C` [compound (28), 21-propanoylalanyl-dexamethasone], with “approximately 70%”.
Take “carboxymethylated dextran-2′-Ile-paclitaxel [compound (15)]”: in the series with B16 melanoma cells [1], the “antitumor activity (relative average tumor volume) as compared to paclitaxel per se” value is listed as “relatively weak”.
As for `CCC(=O)N[C@H](C(=O)OCC(=O)[C@@]1(O)[C@H](C)C[C@H]2[C@@H]3CCC4=CC(=O)C=C[C@]4(C)[C@@]3(F)[C@@H](O)C[C@@]21C)[C@@H](C)CC` [compound (24), 21-propanoylisoleucyl-dexamethasone], in series [3], the “dexamethasone introduced into the compound that was released” value is recorded as no more than 10%.
Turning to `CC(=O)O[C@H]1C(=O)[C@@]2(C)[C@H]([C@H](OC(=O)c3ccccc3)[C@]3(O)C[C@H](OC(=O)[C@H](O)[C@@H](NC(=O)c4ccccc4)c4ccccc4)C(C)=C1C3(C)C)[C@]1(OC(C)=O)CO[C@@H]1C[C@@H]2O` [paclitaxel], the “dissolution of paclitaxel per se” value in series [4] was “could not be dissolved completely”.

Source of the values: patent US6458347B1, “Drug complex” (Asahi Kasei Kabushiki Kaisha, priority 1996, dated 2002).
